{
  "source": "the NIST ThermoML archive (doi:10.1007/s10765-011-1086-8)",
  "key": {"[1]": {"experiment": "relative permittivity at various frequencies (dimensionless)", "conditions": "303.15 K, 101 kPa, Liquid, Frequency=1 MHz"}, "[2]": {"experiment": "relative permittivity at various frequencies (dimensionless); xn = mol fraction of the nth substance listed", "conditions": "303.15 K, 101 kPa, Liquid, Frequency=1 MHz, Parallel plate capacitor"}},
  "note": "Numbers after ± are expanded uncertainties.",
  "data": [
    {"smiles": "CN(C)C=O", "note": "[dimethylformamide]", "values": [
      {"measurement": "relative permittivity", "setting": "[1]; Parallel plate capacitor", "result": "36.55 ± 0.22"}
    ]},
    {"smiles": "O", "note": "[water]", "values": [
      {"measurement": "relative permittivity", "setting": "[1]; Parallel plate capacitor", "result": "76.53 ± 0.46"}
    ]},
    {"smiles": "C1COCCO1", "note": "[1,4-dioxane]", "values": [
      {"measurement": "relative permittivity", "setting": "[1]; Parallel plate capacitor", "result": "2.26 ± 0.014"}
    ]},
    {"smiles": "C[S+](C)[O-]", "note": "[dimethyl sulfoxide]", "values": [
      {"measurement": "relative permittivity", "setting": "[1]", "result": "46.05 ± 0.28"}
    ]},
    {"smiles": "NC=O", "note": "[formamide]", "values": [
      {"measurement": "relative permittivity", "setting": "[1]; Parallel plate capacitor", "result": "106.14 ± 0.64"}
    ]},
    {"smiles": "CN(C)C=O", "note": "[dimethylformamide] + NC=O", "values": [
      {"measurement": "relative permittivity", "setting": "[2]; x2 = 0", "result": "36.55 ± 0.22"}
    ]},
    {"smiles": "NC=O", "note": "[formamide] + NCCO", "values": [
      {"measurement": "relative permittivity", "setting": "[2]; x1 = 0.144", "result": "36.91 ± 0.22"},
      {"measurement": "relative permittivity", "setting": "[2]; x1 = 0.275", "result": "44.61 ± 0.27"},
      {"measurement": "relative permittivity", "setting": "[2]; x1 = 0.394", "result": "52.04 ± 0.31"},
      {"measurement": "relative permittivity", "setting": "[2]; x1 = 0.5", "result": "59.52 ± 0.36"},
      {"measurement": "relative permittivity", "setting": "[2]; x1 = 0.503", "result": "59.14 ± 0.35"},
      {"measurement": "relative permittivity", "setting": "[2]; x1 = 0.603", "result": "66.34 ± 0.4"},
      {"measurement": "relative permittivity", "setting": "[2]; x1 = 0.695", "result": "74.02 ± 0.44"},
      {"measurement": "relative permittivity", "setting": "[2]; x1 = 0.78", "result": "81.77 ± 0.49"},
      {"measurement": "relative permittivity", "setting": "[2]; x1 = 0.859", "result": "90.12 ± 0.54"},
      {"measurement": "relative permittivity", "setting": "[2]; x1 = 0.932", "result": "97.77 ± 0.59"},
      {"measurement": "relative permittivity", "setting": "[2]; x1 = 1", "result": "106.14 ± 0.64"}
    ]},
    {"smiles": "NC=O", "note": "[formamide] + CN(C)C=O", "values": [
      {"measurement": "relative permittivity", "setting": "[2]; x1 = 0.122", "result": "40.58 ± 0.24"},
      {"measurement": "relative permittivity", "setting": "[2]; x1 = 0.23", "result": "45 ± 0.27"},
      {"measurement": "relative permittivity", "setting": "[2]; x1 = 0.327", "result": "49.26 ± 0.3"},
      {"measurement": "relative permittivity", "setting": "[2]; x1 = 0.414", "result": "53.6 ± 0.32"},
      {"measurement": "relative permittivity", "setting": "[2]; x1 = 0.493", "result": "58.17 ± 0.35"},
      {"measurement": "relative permittivity", "setting": "[2]; x1 = 0.5", "result": "58.5 ± 0.35"},
      {"measurement": "relative permittivity", "setting": "[2]; x1 = 0.565", "result": "63.22 ± 0.38"},
      {"measurement": "relative permittivity", "setting": "[2]; x1 = 0.63", "result": "67.66 ± 0.41"},
      {"measurement": "relative permittivity", "setting": "[2]; x1 = 0.69", "result": "72.58 ± 0.44"},
      {"measurement": "relative permittivity", "setting": "[2]; x1 = 0.745", "result": "77.4 ± 0.46"},
      {"measurement": "relative permittivity", "setting": "[2]; x1 = 0.796", "result": "82.52 ± 0.5"},
      {"measurement": "relative permittivity", "setting": "[2]; x1 = 0.843", "result": "86.95 ± 0.52"},
      {"measurement": "relative permittivity", "setting": "[2]; x1 = 0.886", "result": "91.84 ± 0.55"},
      {"measurement": "relative permittivity", "setting": "[2]; x1 = 0.927", "result": "96.1 ± 0.58"},
      {"measurement": "relative permittivity", "setting": "[2]; x1 = 0.965", "result": "101.77 ± 0.61"},
      {"measurement": "relative permittivity", "setting": "[2]; x1 = 1", "result": "106.14 ± 0.64"}
    ]}
  ]
}
